According to patent US11918621B2, “Methods and treatments using toll-like receptor agonists to mitigate hematopoietic myeloid loss, increase gastrointestinal recovery and reduce tumor growth” (priority 2017, dated 2024):
“Also recorded” adds a separate entry of the source. Peptide text beside a SMILES is read from it. * marks the point of attachment. X1 = CCCCCCCCCCCCCCCC(=O)OCC(C*)OC(=O)CCCCCCCCCCCCCCC

Experiments:
[1] = system: irradiated male C57BL/6 mice; assay: Radiomitigation activity of TLR2 ligands after TBI; type: in vivo; details: IP injection 24 hr post TBI
Method: The radiomitigation activity of TLR2 ligands was delineated (FIGS. 1C and 1D), including FSL-1, by irradiating male C57BL/6 mice and treating (IP injections) with either FSL-1, Pam2CSK4 (Pam2Cys-SKKKK, TLR2/6 ligand), or Pam3CSK4 (Pam3Cys-SKKKK, TLR1/2 ligand) at 24 hours (hr) post TBI.

[2] = system: mice treated with FSL-1 post TBI; assay: Late effects of radiation: long-term survivors, MRI of tissues; type: in vivo; details: survivors of more than 600 days
Excerpt: MRI was used to detect multiple tissues in these survivors, such as brain, gut, kidney or spleen. […] FSL-1 is found to accelerate hematopoietic cell recovery in bone marrow, spleen and periphery, and augments systemic levels of hematopoiesis stimulating factors (G-CSF).

B16 melanoma tumor cells = assay: B16 melanoma tumor model with cisplatin chemotherapy
Method: The impact of combining FSL-1 treatment with chemotherapy as a therapeutic against cancer was also tested. In this study, B16 melanoma tumor cells (50,000) in matrigel matrix were implanted into the flank (SC) of wild type animals and were allowed to grow 10 days to palpation (˜3-5 mm in diameter). Mice were then treated with chemotherapy agent cisplatin (intravenous IV, 100 μg/mouse) with and without FSL-1 (SC, 40 μg/mouse). Changes in tumor volume (ellipsoidal volume calculation of ½ width*width*length, mm^3) were monitored along with changes in body weight and condition.

[3] = system: C57BL/6 mice exposed to 9.2 Gy gamma radiation (total body irradiation); assay: Survival and clinical score after lethal total body irradiation, TLR ligands given IP; type: in vivo; details: 9.2 Gy TBI, IP injection one day after radiation, survival over 30 days
Method: To examine the role of TLR ligands as radio-mitigators, FSL-1 (TLR2/6 ligand) was first compared with other TLR ligands (FIGS. 1A and 1B). In this experiment, C57BL/6 mice were exposed to 9.2 Gy gamma radiation (total body irradiation, or TBI) using 137-Cesium irradiator and then the mice were treated with TLR ligands via intraperitoneal (IP) injections one day after radiation. The impact of CpG-ODN2395 (CpG, TLR9 agonist), Flagellin FliC (Fla, TLR5 agonist), MPLA (TLR4 agonist) or FSL-1 (Pam2[…], TLR2/6 agonist) in comparison to mice treated with physiological water (no treatment, NT) was examined. Survival was monitored over 30 days and clinical scores were recorded. […] Eight independent experiments have been completed, each showing the survival rate of FSL-1-treated mice ranged from 50% to 100% with the mean rate of 80%. The lowest one is presented herein.
The Clinical Score is based on changes to body condition that included body weight, body temperature, physical appearance, grooming, posture, activity/behavior, appetite and hydration. Supplementation with wet feed, subcutaneous fluids, long sipper tubes, were provided as needed.

irradiated mice = details: only when injected subcutaneously daily from day 1 to 16 (16 doses); cited from earlier work

With Pam2Cys-SKKKK [Pam2CSK4] the survival [1] was “promoted survival”.

For `CCCCCCCCCCCCCCCC(=O)OCC(CSC[C@H](N)C(=O)NCC(=O)N[C@@H](CC(=O)O)C(=O)N1CCC[C@H]1C(=O)N[C@@H](CCCCN)C(=O)N[C@@H](Cc1c[nH]cn1)C(=O)N1CCC[C@H]1C(=O)N[C@@H](CCCCN)C(=O)N[C@@H](CO)C(=O)N[C@@H](Cc1ccccc1)C(=O)O)OC(=O)CCCCCCCCCCCCCCC` (stereo partly shown) [FSL-1] (H-C(X1)GDPKHPKSF-OH), the “MRI of tissues (brain, gut, kidney, spleen)” value [2] was “no physiologic changes”, the “symptoms of disease in long-term survivors” value [2] was “no symptoms of any diseases; also recorded: without any symptoms of leukemia or other diseases” and the body weight (B16 melanoma tumor cells; mouse, in vivo) was “maintained weight for nearly 2 weeks following treatment”.

In the case of `N.N.[Cl][Pt][Cl]` [cisplatin], the “animals reaching the 2 cm tumor diameter endpoint” value (B16 melanoma tumor cells; by day 19) is reported as “two”, the body condition (B16 melanoma tumor cells; mouse, in vivo) is reported as “reduced body condition” and the body weight (B16 melanoma tumor cells; mouse, in vivo) is reported as “dramatically lost weight after day 19”.

With Pam3Cys-SKKKK [Pam3CSK4] the survival [1] was “promoted survival”.

B1: Flagellin FliC: TLR5 agonist (protein, UniProt P06179 2-495, looked up)
Flagellin: AQVINTNSLSLLTQNNLNKSQSALGTAIERLSSGLRINSAKDDAAGQAIANRFTANIKGLTQASRNANDGISIAQTTEGALNEINNNLQRVRELAVQSANSTNSQSDLDSIQAEITQRLNEIDRVSGQTQFNGVKVLAQDNTLTIQVGANDGETIDIDLKQINSQTLGLDTLNVQQKYKVSDTAATVTGYADTTIALDNSTFKASATGLGGTDQKIDGDLKFDDTTGKYYAKVTVTGGTGKDGYYEVSVDKTNGEVTLAGGATSPLTGGLPATATEDVKNVQVANADLTEAKAALTAAGVTGTASVVKMSYTDNNGKTIDGGLAVKVGDDYYSATQNKDGSISINTTKYTADDGTSKTALNKLGGADGKTEVVSIGGKTYAASKAEGHNFKAQPDLAEAAATTTENPLQKIDAALAQVDTLRSDLGAVQNRFNSAITNLGNTVNNLTSARSRIEDSDYATEVSNMSRAQILQQAGTSVLAQANQVPQNVLSLLR
In the case of B1, the “protection from radiation-induced death” value [3] is reported as “did not show any protection”.

B2: G-CSF: granulocyte colony-stimulating factor, approved radiation countermeasure (protein, UniProt P09919 31-207, looked up)
Granulocyte …: TPLGPASSLPQSFLLKCLEQVRKIQGDGAALQEKLVSECATYKLCHPEELVLLGHSLGIPWAPLSSCPSQALQLAGCLSQLHSGLFLYQGLLQALEGISPELGPTLDTLQLDVADFATTIWQQMEELGMAPALQPTQGAMPAFASAFQRRAGGVLVASHLQSFLEVSYRVLRHLAQP
In the case of B2, the “survival of irradiated mice” value (irradiated mice) is given as “increase the survival”.
